Measurements as given in paper PMC2562941 (Molecular carcinogenesis, 2008).
pIC50: −log10 of the molar value. Each block holds one molecule with its values, some of them ahead of it.

Experiments:
[1] = test system: COX-2^+/+ murine embryonic fibroblasts; assay: Cell growth of COX-2+/+ murine embryonic fibroblasts; conditions: 10 μM, after 6 days
[2] = test system: HT-29 colon cancer cells; assay: Soft agar colony formation assay; type: cell-based, human; conditions: HT-29 cells; 10 or 20 μM; 10 days
[3] = test system: COX-2^+/+ cells; assay: COX-2-mediated PGE2 production ex vivo in COX-2+/+ cells; type: cell-based, murine; conditions: for pIC50: Mus musculus, read-out: IC50, suppression of PGE2 synthesis ex vivo
[4] = target: T1, His-tagged COX-2 (Homo sapiens, UniProt P35354); assay: Surface plasmon resonance; type: binding; conditions: each at 300 μM; 0.1 μg His-COX-2; 25 °C
T1 sequence (P35354 18-604): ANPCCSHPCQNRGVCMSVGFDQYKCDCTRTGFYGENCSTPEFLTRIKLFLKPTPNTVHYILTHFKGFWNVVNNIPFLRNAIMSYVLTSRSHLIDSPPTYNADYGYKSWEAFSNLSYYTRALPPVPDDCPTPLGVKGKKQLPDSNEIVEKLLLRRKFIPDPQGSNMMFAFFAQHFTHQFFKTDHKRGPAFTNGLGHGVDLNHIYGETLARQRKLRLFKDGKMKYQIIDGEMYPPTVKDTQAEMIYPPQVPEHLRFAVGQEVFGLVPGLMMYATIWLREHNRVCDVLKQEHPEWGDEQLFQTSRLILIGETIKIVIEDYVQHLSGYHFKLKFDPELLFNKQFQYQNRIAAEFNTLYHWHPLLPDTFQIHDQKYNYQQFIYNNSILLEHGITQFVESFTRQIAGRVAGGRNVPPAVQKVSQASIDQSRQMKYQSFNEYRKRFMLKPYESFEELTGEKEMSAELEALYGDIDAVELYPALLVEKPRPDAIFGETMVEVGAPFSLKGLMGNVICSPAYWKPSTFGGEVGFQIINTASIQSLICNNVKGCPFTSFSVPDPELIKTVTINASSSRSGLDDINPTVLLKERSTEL

[5] = target: T2, recombinant human COX-2 enzyme (Homo sapiens, UniProt P35354); assay: COX-2-mediated PGE2 production in vitro; type: biochemical
T2 sequence (P35354 18-604): T1 sequence (P35354 18-604)

[6] = test system: HT-29 human colon cancer cells; assay: Cell growth of HT-29 cells; type: cell-based; conditions: each at 10 μM; growth curves over 5 days; vs untreated control
[7] = test system: colorectal cancer cell lines; conditions: independent of COX activity; cited from earlier work
[8] = test system: JB6 Cl41 cells; conditions: cited from earlier work
[9] = test system: COX-2^−/− murine embryonic fibroblasts; assay: Cell growth of COX-2-/- murine embryonic fibroblasts; conditions: 10 μM, after 6 days
[10] = test system: COX-2; conditions: ref 7 (Jang et al.); cited from earlier work
[11] = test system: 1.2-dimethylhydrazine-induced colon carcinogenesis; conditions: rats; 8 mg/kg body weight every day for 30 weeks; cited from earlier work
[12] = test system: three different human colon cancer cell lines; conditions: cited from earlier work

SMILES: COc1ccc(/C=C/c2cc(OC)cc(OC)c2)cc1 [RSVL-3, 3,4’,5-trimethoxy-trans-stilbene]
- growth inhibitory effect on COX-2^+/+ cells [1]: not RSVL-3, exhibited potent growth inhibitory effects
- inhibition of anchorage-independent colony formation in soft agar [2]: little effect
- suppression of PGE2 synthesis ex vivo ([3]; COX-2^+/+ cells): not RSVL-3, dose-dependently suppressed PGE2 synthesis
- binding with His-COX-2 (SPR sensograms) [4]: does not bind
- inhibition of PGE2 synthesis in vitro [5]: not RSVL-3, inhibited PGE2 synthesis in vitro
- inhibition of HT-29 cell growth [6]: not RSVL-3, inhibited cell growth

SMILES: Oc1cc(O)cc(/C=C/c2ccc(O)c(O)c2)c1 [Piceatannol]
- effect on cell cycle progression [7]: inhibited progression through the S phase

- pIC50 [3]: 4.30
- binding with His-COX-2 (SPR sensograms) [4]: more strongly than with RSVL
- pIC50 [5]: 4.60
SMILES: Oc1cc(O)cc(/C=C/c2cc(O)c(O)c(O)c2)c1 [RSVL-2, 3,3’,4’,5’,5-pentahydroxy-trans-stilbene]
- growth inhibitory effect on COX-2^+/+ cells [1]: potent growth inhibitory effects
- suppression of growth of COX-2^+/+ cells [1]: 80%
- inhibition of anchorage-independent colony formation in soft agar [2]: even more strongly
- inhibitory effect on EGF-induced cell transformation compared with resveratrol ([8]; EGF-induced JB6 Cl41 transformation, ref 13 (She et al.)): more potent inhibitory effect
- effect on growth of COX-2^−/− cells [9]: unresponsive
- inhibition of HT-29 cell growth [6]: inhibited cell growth by day 4

SMILES: Oc1ccc(/C=C/c2cc(O)cc(O)c2)cc1 [RSVL, 3,5,4'-trihydroxy-trans-stilbene, reference compound]
- inhibition of cyclooxygenase activity of COX-2 [10]: did not inhibit
- growth inhibitory effect on COX-2^+/+ cells [1]: potent growth inhibitory effects
- suppression of growth of COX-2^+/+ cells [1]: 60%
- effect on growth of COX-2^−/− cells [9]: unresponsive
- effect on size of tumors [11]: markedly reduce the size of tumors

SMILES: Oc1ccc([C@@H]2c3c(O)cc4c(c3[C@@H]3c5c(O)cc6c(c5[C@H]2[C@H]3c2ccc(O)cc2)[C@@H](c2cc(O)cc(O)c2)[C@H](c2ccc(O)cc2)O6)[C@@H](c2cc(O)cc(O)c2)[C@H](c2ccc(O)cc2)O4)cc1 [Vaticanol C]
- suppression of cell growth through induction of apoptosis [12]: markedly suppress cell growth
